According to paper PMC11678782, “The Antioxidant and Anti-Inflammatory Activities of the Methanolic Extract, Fractions, and Isolated Compounds from Eriosema montanum Baker f. (Fabaceae)” (Molecules, 2024):
In brackets after ≈: the same amount, converted by molar mass. Entries after “also recorded” stand apart in the source; their conditions may differ.

Experiments:
[1] = system: LPS-stimulated RAW 264.7 cells; experiment: NO production inhibition in LPS-stimulated RAW 264.7 cells (Griess); type: cell-based, murine; conditions: for IC50: Mus musculus, RAW264.7, RAW 264.7, 2 h pre-treatment, 500 ng/mL LPS 24 h; for Inhibition of LPS-induced NO production: RAW 264.7, single-concentration test at 100 µg/mL, vs control cells
Protocol: […] in a humidified environment containing 5% CO2 and 95% air. For NO and ROS production inhibition assays, the cytotoxic effect of tested samples at 100 µg/mL after 24 h of exposure was initially measured on RAW 264.7 cells (10,000 cells per well) using the standard MTT assay. Then, for NO production inhibition assay, RAW 264.7 cells were pre-treated with tested samples at 100 µg/mL for 2 h followed by addition of culture medium containing 500 ng/mL of lipopolysaccharide (LPS) (Merck, Darmstadt, Germany). After 24 h of incubation under standard cell-culture conditions, NO released was measured in cell supernatants using the Griess reagent (Sigma Aldrich, Darmstadt, Germany), and a SpectraMax iD3 multi-mode microplate reader (Molecular Devices, San Jose, CA, USA) was used to capture the absorbance readings at 540 nm. The ability of each tested material to reduce nitric oxide synthesis by LPS-stimulated RAW 264.7 macrophages in comparison to the negative control (cells treated with DMSO at 0.5% and LPS without extract) was used to calculate the percentage of NO production inhibition.
(§1) The IC50 values were calculated for each biological experiment using the nonlinear regression curve of the % inhibitory activity versus the logarithm (log10) of the various tested concentrations using GraphPad Prism 6.0 software (GraphPad Software, Inc., San Diego, CA, USA). The data are shown as mean ⁱ SEM (standard error of the mean) values, and all biological experiments were conducted in triplicate (n = 3). The statistical analysis was conducted using GraphPad Prism 6.0 software (GraphPad Software, Inc., San Diego, CA, USA). One-way analysis of variance (ANOVA) was used to compare the data across the tested samples and/or controls, and Student–Newman–Keuls or Dunnett’s tests were then performed. A p-value of less than 0.05 indicated a significant difference in the results.

[2] = biological target: T1, soybeans 15-LOX (Glycine max, UniProt P08170); experiment: 15-lipoxygenase enzyme inhibitory assay (FOX); type: biochemical, soybean; conditions: linoleic acid substrate, FOX reagent, 560 nm; read-out: IC50 15-LOX (converted)
T1 construct: purchased Merck, Darmstadt, Germany
T1 sequence (P08170 1-839): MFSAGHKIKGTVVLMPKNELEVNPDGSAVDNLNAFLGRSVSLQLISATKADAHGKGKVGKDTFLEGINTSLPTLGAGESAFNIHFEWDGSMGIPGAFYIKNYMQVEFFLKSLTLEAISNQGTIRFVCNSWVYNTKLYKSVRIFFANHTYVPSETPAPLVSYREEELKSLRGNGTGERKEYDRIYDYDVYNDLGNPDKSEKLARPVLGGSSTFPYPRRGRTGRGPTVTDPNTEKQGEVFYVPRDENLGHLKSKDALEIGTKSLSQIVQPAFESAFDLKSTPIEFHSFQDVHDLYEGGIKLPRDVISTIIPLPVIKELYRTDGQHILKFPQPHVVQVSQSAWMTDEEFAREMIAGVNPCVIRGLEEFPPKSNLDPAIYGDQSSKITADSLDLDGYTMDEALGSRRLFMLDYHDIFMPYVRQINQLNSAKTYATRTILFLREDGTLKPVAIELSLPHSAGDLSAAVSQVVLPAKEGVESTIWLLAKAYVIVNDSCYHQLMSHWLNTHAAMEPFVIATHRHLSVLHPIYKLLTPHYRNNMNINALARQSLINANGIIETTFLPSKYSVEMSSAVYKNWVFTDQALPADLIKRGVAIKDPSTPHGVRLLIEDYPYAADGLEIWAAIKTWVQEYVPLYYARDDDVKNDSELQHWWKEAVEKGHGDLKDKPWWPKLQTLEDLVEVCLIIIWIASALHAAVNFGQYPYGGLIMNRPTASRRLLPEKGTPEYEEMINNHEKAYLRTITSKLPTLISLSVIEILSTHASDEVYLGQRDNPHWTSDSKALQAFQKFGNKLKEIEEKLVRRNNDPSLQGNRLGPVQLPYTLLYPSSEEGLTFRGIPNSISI
Protocol: The method developed by Pinto et al. was used to determine the effect of the tested samples on 15-LOX inhibitory activity, with slight modifications to the 96-well microtitre plate format. Using 20 µL of tested samples at varying concentrations (3.90 to 500 µg/mL), the soybeans 15-LOX (Merck, Darmstadt, Germany) (40 µL, 200 UI/mL) were incubated at 25 °C for 5 min. The plate was then incubated at 25 °C for 20 min in the dark; after, 40 µL of linoleic acid (final concentration, 140 μM) produced in Tris-HCl buffer (50 mM, pH 7.4) was added. A total of 100 µL of the FOX reagent—sulfuric acid (30 mM), xylenol orange (100 μM), and ferrous II) sulfate (100 μM) mixed in methanol/water (9:1)—was added to terminate the test. A SpectraMax iD3 multi-mode microplate reader (Molecular Devices, San Jose, CA, USA) was used to measure the absorbance at 560 nm following 30 min of incubation at 25 °C in the dark. Gallic acid (0.78 to 100 µg/mL) was employed as the usual inhibitor of 15-LOX, while DMSO at 5% (v/v) served as the negative control. With the exception of adding the substrate after the FOX reagent, the blanks were prepared exactly like the tested samples. Formula (2) below was used to compute the 15-LOX inhibitory activity. 15 LOX inhibitory activity (%) = 100 − [(A0 − A1) − (A2 − A1)] × 100(2) where A0 is absorbance of test samples, A1 is absorbance of blank, and A2 is absorbance of negative control (DMSO 5%).
as §1

| Structure (SMILES) | IC50 [1] [µg/mL] | IC50 [2] [µM] | Inhibition of LPS-induced NO production [1] | Inhibition of LPS-induced NO production ([1]; listed as Genistin (5)) | Inhibition of LPS-induced NO production ([1]; listed as genistin (5)) |
| --- | --- | --- | --- | --- | --- |
| CCCCCCCCCCCCCCCC [Compound 1, n-hexadecane] | > 100 | > 883 |  |  |  |
| O=c1c(-c2ccc(O)cc2)coc2cc(O[C@@H]3O[C@H](CO)[C@@H](O)[C@H](O)[C@H]3O)cc(O)c12 [Compound 5, genistin] | 66 ± 4.21 (≈ 153 µM) | 414 | significantly inhibited | able to inhibit | moderate activity; also recorded: moderately effective |
| CC[C@H](/C=C/[C@@H](C)[C@H]1CC[C@H]2[C@@H]3CC=C4C[C@@H](O[C@@H]5O[C@H](CO)[C@@H](O)[C@H](O)[C@H]5O)CC[C@]4(C)[C@H]3CC[C@]12C)C(C)C [Compound 7, stigmasterol glucoside] | > 100 | > 348 |  |  |  |

Further lines, with some results ahead:

| IC50 [1] [µg/mL] | IC50 [2] [µM] | Structure (SMILES) | Inhibition of LPS-induced NO production [1] | Inhibition of LPS-induced NO production ([1]; listed as Genistin (5)) | Inhibition of LPS-induced NO production ([1]; listed as genistin (5)) |
| --- | --- | --- | --- | --- | --- |
| > 100 | > 587 | CCCCCCCCCCCCCCCCCCCCCCCO [Compound 3, tricosan-1-ol] |  |  |  |
| > 100 | > 704 | O=c1c2c(O)cc(O)cc2oc2oc3cc(O)ccc3c12 [Compound 4, lupinalbin A] |  |  |  |
| > 100 | > 1030 | CO[C@H]1[C@H](O)[C@@H](O)[C@@H](O)[C@H](O)[C@@H]1O [Compound 6, D-pinitol] |  |  |  |
